Measurements: patent US20260176320A1, “MODULATORS OF G-PROTEIN COUPLED RECEPTORS” (priority 2018, published 2026)
Where two headings read alike, the source gives them in different places. Square brackets hold non-standard residues; d marks the D form. Peptide text beside a SMILES is read from it. * marks the point of attachment. X3 = O=C(CSCC(=O)*)NCCn1ccccc1=O; Aib = CC(C)(N)C(=O)O

Experiments:
Format in all cases: cell-based
GLP-1R [1] = target: T1, GLP-1R (Homo sapiens, UniProt P43220); assay: PathHunter β-arrestin assay
T1 sequence (P43220 24-463): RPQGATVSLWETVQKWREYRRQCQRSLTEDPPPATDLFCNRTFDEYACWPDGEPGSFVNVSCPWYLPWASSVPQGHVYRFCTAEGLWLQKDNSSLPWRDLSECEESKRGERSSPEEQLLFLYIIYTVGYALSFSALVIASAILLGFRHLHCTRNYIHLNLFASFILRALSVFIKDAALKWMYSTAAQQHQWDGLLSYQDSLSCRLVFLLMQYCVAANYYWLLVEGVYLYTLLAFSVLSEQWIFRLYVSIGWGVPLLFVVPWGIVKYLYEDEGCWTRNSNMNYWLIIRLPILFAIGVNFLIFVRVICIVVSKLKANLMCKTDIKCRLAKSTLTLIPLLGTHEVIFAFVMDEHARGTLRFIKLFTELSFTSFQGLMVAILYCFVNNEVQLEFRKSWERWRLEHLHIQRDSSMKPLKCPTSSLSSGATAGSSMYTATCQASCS
How it was run: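 Cells seeded overnight, then medium replaced with medium containing 0.2% BSA; agonists added as 22-point 2-fold DMSO dilution series in duplicate and incubated 90 min at 37 °C, 5% CO2. After addition of detection solution, plates sat 3 h at room temperature in the dark; luminescence read.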

GLP-1R [2] = target: T1, GLP-1R; assay: HitHunter cAMP assay (GLP-1R); details: cAMP; for Emax: read-out: (Emax) GLP-1R
How it was run: (§1)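 Suspension cells expressing each receptor (10,000 per well) in HBSS with 10 mM HEPES, 625 μM IBMX and 0.2% BSA were treated with a 22-point 2-fold agonist series in duplicate for 30 minutes at room temperature. cAMP was detected by antibody immunocompetition with luminescence read after overnight incubation.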

GIP-R = target: T2, GIP-R (Homo sapiens, UniProt P48546); assay: HitHunter cAMP assay (GIP-R); details: cAMP; for Emax: read-out: (Emax) GIP-R
T2 sequence (P48546 22-466): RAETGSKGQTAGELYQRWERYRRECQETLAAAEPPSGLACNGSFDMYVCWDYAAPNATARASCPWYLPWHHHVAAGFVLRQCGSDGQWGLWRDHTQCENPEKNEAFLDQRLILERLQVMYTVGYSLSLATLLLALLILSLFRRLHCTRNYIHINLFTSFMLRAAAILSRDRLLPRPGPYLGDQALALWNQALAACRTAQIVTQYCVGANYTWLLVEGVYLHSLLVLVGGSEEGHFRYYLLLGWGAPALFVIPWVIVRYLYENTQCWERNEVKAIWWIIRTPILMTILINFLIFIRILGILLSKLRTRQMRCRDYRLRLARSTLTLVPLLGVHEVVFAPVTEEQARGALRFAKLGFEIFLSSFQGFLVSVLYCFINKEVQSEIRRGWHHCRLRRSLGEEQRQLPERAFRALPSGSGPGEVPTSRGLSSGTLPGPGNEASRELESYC
How it was run: as §1

[3] = PathHunter β-arrestin assay, read-out: β-arrestin activity EC50
[4] = Table 3, read-out: EC50 GLP-1R/nM
[5] = Table 3A, read-out: EC50 GLP-1R/nM
[6] = Table 3, read-out: EC50 GIP-R/nM
[7] = Table 3A, read-out: EC50 GIP-R/nM

| Compound | EC50 (GLP-1R [1]) | EC50 (GLP-1R [2]; EC50 GLP-1R/nM, Table 3A) | Emax (GLP-1R [2]; Table 3A) | EC50 (GIP-R; EC50 GIP-R/nM, Table 3A) | Emax (GIP-R; Table 3A) | Emax (GLP-1R [2]; Table 3) | EC50 (GLP-1R [2]; read-out: EC50 GLP-1R/nM, Table 3) | EC50 (GLP-1R [2]; read-out: EC50 GLP-1R/nM, Table 3A) | Emax (GIP-R; Table 3) | EC50 (GIP-R; read-out: EC50 GIP-R/nM, Table 3) | EC50 (GIP-R; read-out: EC50 GIP-R/nM, Table 3A) | EC50 (GLP-1R [1]; [3]) | EC50 (GLP-1R [2]; [4]) | EC50 (GLP-1R [2]; [5]) | EC50 (GIP-R; [6]) | EC50 (GIP-R; [7]) | Emax at 1 µM (GIP-R; read-out: (Emax) GIP-R at 1 μM, Table 3, at 1 μM) | EC50 (GLP-1R [2]; EC50 GLP-1R/nM, Table 3) | EC50 (GIP-R; EC50 GIP-R/nM, Table 3) |
| --- | --- | --- | --- | --- | --- | --- | --- | --- | --- | --- | --- | --- | --- | --- | --- | --- | --- | --- | --- |
| CCCCCCCCCCCCCCCC(=O)N[C@@H](CCC(=O)NCCCC[C@H](NC(=O)[C@H](CO)NC(=O)[C@@H]1CCCN1C(=O)[C@@H]1CCCN1C(=O)[C@@H]1CCCN1C(=O)[C@H](C)NC(=O)CNC(=O)[C@H](CO)NC(=O)[C@H](CO)NC(=O)[C@@H]1CCCN1C(=O)CNC(=O)CNC(=O)[C@H](C)NC(=O)[C@H](CC(C)C)NC(=O)[C@H](CC(C)C)NC(=O)[C@H](Cc1c[nH]c2ccccc12)NC(=O)[C@H](CC(N)=O)NC(=O)[C@@H](NC(=O)[C@H](Cc1ccccc1)NC(=O)[C@H](CCC(=O)O)NC(=O)C(C)(C)NC(=O)[C@H](C)NC(=O)[C@H](C)NC(=O)[C@H](CCC(N)=O)NC(=O)[C@H](CCCCN)NC(=O)[C@H](CC(=O)O)NC(=O)[C@H](CC(C)C)NC(=O)[C@H](Cc1ccc(O)cc1)NC(=O)[C@@H](NC(=O)[C@H](CO)NC(=O)[C@H](Cc1ccc(O)cc1)NC(=O)[C@H](CC(=O)O)NC(=O)[C@H](CO)NC(=O)[C@@H](NC(=O)[C@H](Cc1ccccc1)NC(=O)[C@@H](NC(=O)CNC(=O)[C@H](CCC(=O)O)NC(=O)CSCC(=O)NCCn1cc(C)ccc1=O)[C@@H](C)O)[C@@H](C)O)[C@@H](C)CC)C(C)C)C(N)=O)C(=O)O [Compound 238] | > 1000 nM | 0.1 to 1 nM | 95% | 1 to 10 nM | 82% |  |  |  |  |  |  |  |  |  |  |  |  |  |  |
| CC[C@H](C)[C@H](NC(=O)[C@H](CO)NC(=O)[C@H](Cc1ccc(O)cc1)NC(=O)[C@H](CC(=O)O)NC(=O)[C@H](CO)NC(=O)[C@@H](NC(=O)[C@H](Cc1ccccc1)NC(=O)[C@@H](NC(=O)CNC(=O)[C@H](CCC(=O)O)NC(=O)C(C)(C)C(=O)NCCCN1C(=O)c2ccc(C)cc2C1=O)[C@@H](C)O)[C@@H](C)O)C(=O)N[C@@H](Cc1ccc(O)cc1)C(=O)N[C@@H](CC(C)C)C(=O)N[C@@H](CC(=O)O)C(=O)N[C@@H](CCCCN)C(=O)N[C@@H](CCC(N)=O)C(=O)N[C@@H](C)C(=O)N[C@@H](C)C(=O)NC(C)(C)C(=O)N[C@@H](CCC(=O)O)C(=O)N[C@@H](Cc1ccccc1)C(=O)N[C@H](C(=O)N[C@@H](CC(N)=O)C(=O)N[C@@H](Cc1c[nH]c2ccccc12)C(=O)N[C@@H](CC(C)C)C(=O)N[C@@H](CC(C)C)C(=O)N[C@@H](C)C(=O)NCC(=O)NCC(=O)N1CCC[C@H]1C(=O)N[C@@H](CO)C(=O)N[C@@H](CO)C(=O)NCC(=O)N[C@@H](C)C(=O)N1CCC[C@H]1C(=O)N1CCC[C@H]1C(=O)N1CCC[C@H]1C(=O)N[C@@H](CO)C(=O)N[C@@H](CCCCN)C(N)=O)C(C)C [Compound 129] | > 1000 nM |  | 91 to 95% |  | 102 to 109% | 91 to 95% | 1 to 100 nM | 1 to 100 nM | 102 to 109% | 0.1 to 10 nM | 0.1 to 10 nM |  |  |  |  |  |  |  |  |
| CC[C@H](C)[C@H](NC(=O)[C@H](CO)NC(=O)[C@H](Cc1ccc(O)cc1)NC(=O)[C@H](CC(=O)O)NC(=O)[C@H](CO)NC(=O)[C@@H](NC(=O)[C@H](Cc1ccccc1)NC(=O)[C@@H](NC(=O)CNC(=O)[C@H](CCC(=O)O)NC(=O)C[S+]([O-])CC(=O)NCCN1C(=O)CSC1=O)[C@@H](C)O)[C@@H](C)O)C(=O)N[C@@H](Cc1ccc(O)cc1)C(=O)N[C@@H](CC(C)C)C(=O)N[C@@H](CC(=O)O)C(=O)N[C@@H](CCCCN)C(=O)N[C@@H](CCC(N)=O)C(=O)N[C@@H](C)C(=O)N[C@@H](C)C(=O)NC(C)(C)C(=O)N[C@@H](CCC(=O)O)C(=O)N[C@@H](Cc1ccccc1)C(=O)N[C@H](C(=O)N[C@@H](CC(N)=O)C(=O)N[C@@H](Cc1c[nH]c2ccccc12)C(=O)N[C@@H](CC(C)C)C(=O)N[C@@H](CC(C)C)C(=O)N[C@@H](C)C(=O)NCC(=O)NCC(=O)N1CCC[C@H]1C(=O)N[C@@H](CO)C(=O)N[C@@H](CO)C(=O)NCC(=O)N[C@@H](C)C(=O)N1CCC[C@H]1C(=O)N1CCC[C@H]1C(=O)N1CCC[C@H]1C(=O)N[C@@H](CO)C(=O)N[C@@H](CCCCN)C(N)=O)C(C)C (some centres unmarked) [Compound 170] |  |  | 99% |  |  | 99% |  |  |  |  |  | > 1000 nM | 1 to 10 nM | 1 to 10 nM | > 1000 nM | > 1000 nM | 5 to 8% |  |  |
| CC[C@H](C)[C@H](NC(=O)[C@H](CO)NC(=O)[C@H](Cc1ccc(O)cc1)NC(=O)[C@H](CC(=O)O)NC(=O)[C@H](CO)NC(=O)[C@@H](NC(=O)[C@H](Cc1ccccc1)NC(=O)[C@@H](NC(=O)CNC(=O)[C@H](CCC(=O)O)NC(=O)CSCC(=O)NCCn1ccccc1=O)[C@@H](C)O)[C@@H](C)O)C(=O)N[C@@H](Cc1ccc(O)cc1)C(=O)N[C@@H](CC(C)C)C(=O)N[C@@H](CC(=O)O)C(=O)N[C@@H](CCCCN)C(=O)N[C@@H](CCC(N)=O)C(=O)N[C@@H](C)C(=O)N[C@@H](C)C(=O)NC(C)(C)C(=O)N[C@@H](CCC(=O)O)C(=O)N[C@@H](Cc1ccccc1)C(=O)N[C@H](C(=O)N[C@@H](CC(N)=O)C(=O)N[C@@H](Cc1c[nH]c2ccccc12)C(=O)N[C@@H](CC(C)C)C(=O)N[C@@H](CC(C)C)C(=O)N[C@@H](C)C(=O)NCC(=O)NCC(=O)N1CCC[C@H]1C(=O)N[C@@H](CO)C(=O)N[C@@H](CO)C(=O)NCC(=O)N[C@@H](C)C(=O)N1CCC[C@H]1C(=O)N1CCC[C@H]1C(=O)N1CCC[C@H]1C(=O)N[C@@H](CO)C(=O)N[C@@H](CCCCN)C(N)=O)[C@@H](C)CC [Compound 118] (X3-EGTFTSDYSIYLDKQAA[Aib]EFINWLLAGGPSSGAPPPSK-NH2) |  |  | 95% |  | 35% | 95% |  |  | 35% |  |  | > 1000 nM | < 0.1 nM | < 0.1 nM | 1 to 10 nM | 1 to 10 nM |  |  |  |
| CC[C@H](C)[C@H](NC(=O)[C@H](CO)NC(=O)[C@H](Cc1ccc(O)cc1)NC(=O)[C@H](CC(=O)O)NC(=O)[C@H](CO)NC(=O)[C@@H](NC(=O)[C@H](Cc1ccccc1)NC(=O)[C@@H](NC(=O)CNC(=O)[C@H](CCC(=O)O)NC(=O)CSCC(=O)NCCn1c(C)cc(C)nc1=O)[C@@H](C)O)[C@@H](C)O)C(=O)N[C@@H](Cc1ccc(O)cc1)C(=O)N[C@@H](CC(C)C)C(=O)N[C@@H](CC(=O)O)C(=O)N[C@@H](CCCCN)C(=O)N[C@@H](CCC(N)=O)C(=O)N[C@@H](C)C(=O)N[C@@H](C)C(=O)NC(C)(C)C(=O)N[C@@H](CCC(=O)O)C(=O)N[C@@H](Cc1ccccc1)C(=O)N[C@H](C(=O)N[C@@H](CC(N)=O)C(=O)N[C@@H](Cc1c[nH]c2ccccc12)C(=O)N[C@@H](CC(C)C)C(=O)N[C@@H](CC(C)C)C(=O)N[C@@H](C)C(=O)NCC(=O)NCC(=O)N1CCC[C@H]1C(=O)N[C@@H](CO)C(=O)N[C@@H](CO)C(=O)NCC(=O)N[C@@H](C)C(=O)N1CCC[C@H]1C(=O)N1CCC[C@H]1C(=O)N1CCC[C@H]1C(=O)N[C@@H](CO)C(=O)N[C@@H](CCCCN)C(N)=O)C(C)C [Compound 137] | > 1000 nM | 1 to 10 nM | 103% |  |  | 103% |  |  | 8% |  |  |  |  |  |  |  |  | 1 to 10 nM | 10 to 100 nM |
